# Results published in BindingDB's records for doi:10.1111/cbdd.12243 (Shandong Institute of Pharmaceutical Industry, 2014).
# pIC50: −log10 of the molar value.
# Experiments:
# Test in all cases: Z-LYTE biochemical assay
# Conditions in all cases: 25 °C
# [1] = target: Tyrosine-protein kinase ABL1 (Homo sapiens, UniProt P00519)
# Experimental: (§1) The reaction was stopped by the addition of 5 µL stop reagent.
# [2] = target: Vascular endothelial growth factor receptor 2 (Homo sapiens, UniProt P35968)
# Chain of Vascular endothelial growth factor receptor 2 (P35968 whole entry): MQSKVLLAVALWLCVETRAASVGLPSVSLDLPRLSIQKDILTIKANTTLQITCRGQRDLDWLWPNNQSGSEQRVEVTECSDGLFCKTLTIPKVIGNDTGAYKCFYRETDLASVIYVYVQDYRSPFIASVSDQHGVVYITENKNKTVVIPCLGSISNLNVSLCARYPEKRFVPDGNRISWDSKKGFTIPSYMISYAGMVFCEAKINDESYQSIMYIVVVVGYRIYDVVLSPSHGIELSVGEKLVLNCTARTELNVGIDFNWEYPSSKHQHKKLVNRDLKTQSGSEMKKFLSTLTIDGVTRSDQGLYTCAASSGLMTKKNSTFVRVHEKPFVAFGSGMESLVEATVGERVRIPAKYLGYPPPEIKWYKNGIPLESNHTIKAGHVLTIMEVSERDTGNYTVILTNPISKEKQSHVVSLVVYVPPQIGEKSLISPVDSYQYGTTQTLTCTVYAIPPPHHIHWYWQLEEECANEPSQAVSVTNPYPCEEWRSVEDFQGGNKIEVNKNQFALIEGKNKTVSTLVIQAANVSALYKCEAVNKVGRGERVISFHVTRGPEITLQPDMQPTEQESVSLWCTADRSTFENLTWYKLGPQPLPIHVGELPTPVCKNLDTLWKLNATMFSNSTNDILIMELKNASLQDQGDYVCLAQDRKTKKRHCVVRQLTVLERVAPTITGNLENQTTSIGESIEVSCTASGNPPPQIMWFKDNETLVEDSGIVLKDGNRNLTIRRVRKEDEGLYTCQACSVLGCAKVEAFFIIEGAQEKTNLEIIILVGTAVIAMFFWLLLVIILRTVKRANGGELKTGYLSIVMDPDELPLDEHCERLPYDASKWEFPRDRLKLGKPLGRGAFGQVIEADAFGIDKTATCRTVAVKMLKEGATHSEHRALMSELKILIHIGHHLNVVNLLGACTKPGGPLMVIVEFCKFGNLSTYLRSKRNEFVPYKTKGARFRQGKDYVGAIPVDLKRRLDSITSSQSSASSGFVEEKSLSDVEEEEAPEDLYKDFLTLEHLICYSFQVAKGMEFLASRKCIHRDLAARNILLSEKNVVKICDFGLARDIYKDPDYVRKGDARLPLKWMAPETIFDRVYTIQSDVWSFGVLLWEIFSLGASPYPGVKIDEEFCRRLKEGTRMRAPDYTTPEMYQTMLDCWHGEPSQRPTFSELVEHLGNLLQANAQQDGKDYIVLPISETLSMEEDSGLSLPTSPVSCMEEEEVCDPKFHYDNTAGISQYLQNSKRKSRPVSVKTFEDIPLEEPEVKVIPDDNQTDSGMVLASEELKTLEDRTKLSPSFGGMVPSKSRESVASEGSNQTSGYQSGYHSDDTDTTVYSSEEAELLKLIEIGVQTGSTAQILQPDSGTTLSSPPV
# Experimental: as §1
# [3] = target: Receptor protein-tyrosine kinase (Homo sapiens, UniProt Q504U8)
# Chain of Receptor protein-tyrosine kinase (Q504U8 whole entry): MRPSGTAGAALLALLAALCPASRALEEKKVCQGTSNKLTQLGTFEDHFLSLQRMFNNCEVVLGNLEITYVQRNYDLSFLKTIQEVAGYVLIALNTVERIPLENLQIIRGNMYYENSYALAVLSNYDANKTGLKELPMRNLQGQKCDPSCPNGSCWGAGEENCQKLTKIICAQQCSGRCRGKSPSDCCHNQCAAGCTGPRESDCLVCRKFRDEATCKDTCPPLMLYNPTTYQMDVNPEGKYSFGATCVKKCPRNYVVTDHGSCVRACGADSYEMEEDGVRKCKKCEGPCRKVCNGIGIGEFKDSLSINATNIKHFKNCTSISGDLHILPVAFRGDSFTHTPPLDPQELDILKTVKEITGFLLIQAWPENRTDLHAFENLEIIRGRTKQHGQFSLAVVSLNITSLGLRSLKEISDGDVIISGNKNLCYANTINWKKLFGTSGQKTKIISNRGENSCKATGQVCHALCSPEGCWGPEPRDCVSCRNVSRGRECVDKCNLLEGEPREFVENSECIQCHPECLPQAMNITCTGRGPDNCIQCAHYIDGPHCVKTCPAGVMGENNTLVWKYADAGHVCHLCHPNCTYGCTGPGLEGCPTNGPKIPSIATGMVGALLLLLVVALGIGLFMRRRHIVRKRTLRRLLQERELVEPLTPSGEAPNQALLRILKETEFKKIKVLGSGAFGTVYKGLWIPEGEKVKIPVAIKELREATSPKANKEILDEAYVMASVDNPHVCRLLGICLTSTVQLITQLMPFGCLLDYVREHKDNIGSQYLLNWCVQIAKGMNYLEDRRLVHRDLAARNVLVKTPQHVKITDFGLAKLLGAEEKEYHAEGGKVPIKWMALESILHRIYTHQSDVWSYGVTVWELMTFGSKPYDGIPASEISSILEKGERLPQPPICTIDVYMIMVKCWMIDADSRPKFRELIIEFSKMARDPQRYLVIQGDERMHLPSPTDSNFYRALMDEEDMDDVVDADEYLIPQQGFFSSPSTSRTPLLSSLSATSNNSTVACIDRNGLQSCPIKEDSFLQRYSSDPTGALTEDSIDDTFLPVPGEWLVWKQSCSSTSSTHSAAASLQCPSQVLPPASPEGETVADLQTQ
# Experimental: as §1
# Chain of Tyrosine-protein kinase ABL1 (P00519 whole entry): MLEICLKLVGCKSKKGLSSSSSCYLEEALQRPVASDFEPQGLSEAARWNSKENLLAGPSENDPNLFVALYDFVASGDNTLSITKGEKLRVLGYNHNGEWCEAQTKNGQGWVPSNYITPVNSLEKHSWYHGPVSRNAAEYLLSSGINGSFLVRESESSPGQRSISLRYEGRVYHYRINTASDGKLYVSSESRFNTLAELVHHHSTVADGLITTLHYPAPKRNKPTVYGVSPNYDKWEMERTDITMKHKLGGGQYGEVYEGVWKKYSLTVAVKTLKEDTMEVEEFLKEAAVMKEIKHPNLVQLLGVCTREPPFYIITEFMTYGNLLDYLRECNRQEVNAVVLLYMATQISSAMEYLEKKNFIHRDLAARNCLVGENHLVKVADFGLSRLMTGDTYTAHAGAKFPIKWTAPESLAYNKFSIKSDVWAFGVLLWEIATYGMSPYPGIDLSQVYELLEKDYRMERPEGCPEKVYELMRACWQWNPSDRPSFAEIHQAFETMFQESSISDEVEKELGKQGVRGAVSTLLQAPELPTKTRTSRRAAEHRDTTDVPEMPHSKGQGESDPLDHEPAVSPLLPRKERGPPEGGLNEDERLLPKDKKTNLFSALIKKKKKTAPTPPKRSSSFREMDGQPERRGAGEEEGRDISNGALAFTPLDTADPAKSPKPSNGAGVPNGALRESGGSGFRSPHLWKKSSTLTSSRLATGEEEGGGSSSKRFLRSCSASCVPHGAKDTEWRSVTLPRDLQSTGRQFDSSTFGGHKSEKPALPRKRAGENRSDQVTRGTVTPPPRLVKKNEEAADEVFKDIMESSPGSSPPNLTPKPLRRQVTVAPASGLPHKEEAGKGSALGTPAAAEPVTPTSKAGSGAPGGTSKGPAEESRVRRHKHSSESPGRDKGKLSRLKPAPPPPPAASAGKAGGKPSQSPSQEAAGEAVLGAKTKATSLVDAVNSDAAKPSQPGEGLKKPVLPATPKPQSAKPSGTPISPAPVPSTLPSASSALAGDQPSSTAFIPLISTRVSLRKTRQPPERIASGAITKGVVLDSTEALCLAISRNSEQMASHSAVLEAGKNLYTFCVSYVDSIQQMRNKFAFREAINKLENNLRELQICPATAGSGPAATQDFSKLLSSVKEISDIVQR
SMILES,pIC50 [1],pIC50 [2],pIC50 [3]
"Cc1c2ccc(Nc3ccnc(Nc4ccc(S(=O)(=O)NC(=N)N)cc4)n3)cc2nn1C [N-carbamimidoyl-4-((4-((2,3-dimethyl-2H-indazole-6-yl)amino)pyrimidin-2-yl)amino) benzenesulfonamide (P1g)]",6.03,5.87,
"Cc1c2ccc(N(C)c3ccnc(Nc4ccc(S(=O)(=O)Nc5ncccn5)cc4)n3)cc2nn1C [4-((4-((2,3-dimethyl-2H-indazole-6-yl)(methyl)amino)pyrimidin-2-yl)amino)-N-(pyrimidin-2-yl) benzenesulfonamide (P2c)]",6.92,7.54,
"Cc1cc(NS(=O)(=O)c2ccc(Nc3nccc(Nc4ccc5c(C)n(C)nc5c4)n3)cc2)no1 [4-((4-((2,3-dimethyl-2H-indazole-6-yl)amino)pyrimidin-2-yl)amino)-N-(5-methylisoxazol-3-yl) benzenesulfonamide (P1f)]",5.66,5.79,
"Cc1cc(C)nc(NS(=O)(=O)c2ccc(Nc3nccc(N(C)c4ccc5c(C)n(C)nc5c4)n3)cc2)n1 [4-((4-((2,3-dimethyl-2H-indazole-6-yl)(methyl)amino)pyrimidin-2-yl)amino)-N-(4,6-dimethylpyrimidin-2-yl)benzenesulfonamide (P2e)]",7.66,7.92,
"Cc1ccnc(NS(=O)(=O)c2ccc(Nc3nccc(N(C)c4ccc5c(C)n(C)nc5c4)n3)cc2)n1 [4-((4-((2,3-dimethyl-2H-indazole-6-yl)(methyl)amino)pyrimidin-2-yl)amino)-N-(4-methylpyrimidin-2-yl)benzenesulfonamide (P2d)]",7.21,7.60,
"Cc1cc(C)nc(NS(=O)(=O)c2ccc(Nc3nccc(Nc4ccc5c(C)n(C)nc5c4)n3)cc2)n1 [4-((4-((2,3-dimethyl-2H-indazole-6-yl)amino)pyrimidin-2-yl)amino)-N-(4,6-dimethylpyrimidin-2-yl)benzenesulfonamide (P1e)]",6.44,6.92,
"Cc1ccnc(NS(=O)(=O)c2ccc(Nc3nccc(Nc4ccc5c(C)n(C)nc5c4)n3)cc2)n1 [4-((4-((2,3-dimethyl-2H-indazole-6-yl)amino)pyrimidin-2-yl)amino)-N-(4-methylpyrimidin-2-yl) benzenesulfonamide (P1d)]",6.55,6.80,
"Cc1c2ccc(Nc3ccnc(Nc4ccc(S(=O)(=O)Nc5ncccn5)cc4)n3)cc2nn1C [4-((4-((2,3-dimethyl-2H-indazole-6-yl)amino)pyrimidin-2-yl)amino)-N-(pyrimidin-2-yl) benzenesulfonamide (P1c)]",6.34,7.47,
"Cc1c2ccc(N(C)c3ccnc(Nc4ccc(S(=O)(=O)NC(=N)N)cc4)n3)cc2nn1C [N-carbamimidoyl-4-((4-((2,3-dimethyl-2H-indazole-6-yl)(methyl)amino)pyrimidin-2-yl)amino) benzenesulfonamide (P2g)]",6.44,6.14,5.86
"Cc1cc(NS(=O)(=O)c2ccc(Nc3nccc(N(C)c4ccc5c(C)n(C)nc5c4)n3)cc2)no1 [4-((4-((2,3-dimethyl-2H-indazole-6-yl)(methyl)amino)pyrimidin-2-yl)amino)-N-(5-methylisoxazol-3-yl)benzenesulfonamide (P2f)]",6.49,6.19,
